Results on 11 molecules are retold here after ChEMBL document CHEMBL4673313, “Small-Molecule Inhibitors Directly Targeting KRAS as Anticancer Therapeutics” (J Med Chem, 2020).

pEC50, pIC50, pKd: −log10 of the molar value.

The subject of data set [1] is GTPase KRas (Homo sapiens), P01116 [G12C]. The experiment in a line: Covalent binding affinity to GDP-loaded hexahistidine-tagged KRas G12C mutant (1 to 169 residues) (unknown origin) expressed in Escherichia coli assessed as rate constant by liquid chromatography-electrospray mass spectrometry analysis.
The test system is the same in data set [2]. The experiment in a line: Binding affinity to human hexahistidine-tagged KRas G12C mutant (1 to 169 residues) expressed in Escherichia coli(BL21 (DE3)) assessed as rate constant for covalent modification by measuring Kobs/[I] at 10 uM by liquid chromatography-electrospray mass spectrometry analysis.
A short description of data set [3]: Oral bioavailability in BALB/c mouse at 10 mg/kg by LC-MS/MS analysis. The class given is ADME, organism-based. As to conditions: in vivo.
Data set [4] relates to DLD-1. In words: Antiproliferative activity against human DLD-1 cells incubated for 72 hrs by CellTitreGlo assay. The class given is functional, cell-based. To be noted: DLD-1, 72 h.
For data set [5], the system named is DLD-1. In words: Antiproliferative activity against human DLD-1 cells harboring KRAS G13D mutant incubated for 72 hrs by CellTitreGlo assay. Type of data set: functional, cell-based. To be noted: DLD-1, 72 h.
In the next data set the test system is A549. In words: Antiproliferative activity against human A549 cells incubated for 3 days by CellTiter-Glo assay. The class given is functional, cell-based. As to conditions: A549, 72 h.
Data set [6] in a line: Binding affinity to GppNHp-bound N-terminal His6-tagged KRAS4B G12D mutant (1 to 169 residues) (unknown origin) at 10 uM by 19F NMR Spectroscopy. Details: species or system Homo sapiens.
A short description of data set [7]: Binding affinity to GppNHp-bound N-terminal His6-tagged KRAS4B G12D mutant (1 to 169 residues) (unknown origin) by isothermal titration calorimetry. Details: species or system Homo sapiens.
Data set [8] in a line: Binding affinity to GppNHp-bound N-terminal His6-tagged KRAS4B G12D mutant (1 to 169 residues) (unknown origin) by microscale thermophoresis. More on the design: species or system Homo sapiens.
Data set [9] relates to DLD-1. The experiment in a line: Antiproliferative activity against human DLD-1 cells. Type of data set: functional, cell-based.
The subject of a further data set is NCI-H358. In words: Antiproliferative activity against human NCI-H358 cells incubated for 14 days by alamar blue dye based assay. Type of data set: functional, cell-based. To be noted: NCI-H358, 336 h.
Data set [10] concerns the target T1, GTPase KRas (Homo sapiens, UniProt P01116). The experiment in a line: Inhibition of GDP-bound KRas activation (unknown origin) expressed in Escherichia coli Rosetta2 (DE3) cells assessed as reduction in SOS-catalyzed nucleotide exchange at 1 mM in presence of BODIPY-GTP by fluorescence method relative to control.
Data set [11] addresses T1, GTPase KRas. The experiment in a line: Inhibition of KRas activation in HEK 293T-REx Flp-In cells harboring Venus-RBD-CRD/mCherry-CAAX assessed as reduction in Venus-RBD-CRD recruitment to plasma membrane by inverted confocal microscopy. More on the design: species or system Flp-In-T-REx-293.
Data set [12] deals with GTPase KRas (Homo sapiens, UniProt P01116, G12D). The experiment in a line: Binding affinity to 15N-labelled GDP bound KRas G12D mutant ( 1 to 169 residues) (unknown origin) expressed in Escherichia coli Rosetta 2 (DE3) cells by 1H/15N- HSQC spectroscopy.

For the molecule `C=CC(=O)N1CC(N2CCN(C(=O)CNc3cc(C4(C)CC4)c(Cl)cc3O)CC2)C1`, the figures for the K in data set [1] and in data set [2] were 76 M⁻¹ s⁻¹ and 140 M⁻¹ s⁻¹, respectively. In data set [3], this molecule yielded a bioavailability above 60%.

`COc1cccc(-c2ccc(Nc3ccc(CN(C)C)cc3)c(OC)c2F)c1`: in the data set with DLD-1 [4], the pIC50 was 5.35. Consider `COc1nc(-c2cccc3c2OCCO3)ccc1Nc1ccc(CN(C)C)cc1`, for which the pIC50 with DLD-1 [5] was 5.10.

For `CCCC(CCC)COC(=O)[C@@H](C)NP(=O)(OCCNC(=O)CCl)OP(=O)(O)OC[C@H]1O[C@@H](n2cnc3c(=O)[nH]c(N)nc32)[C@H](O)[C@@H]1O` (stereo partly specified), the pEC50 with A549 was 4.36. Take `NC1(C(=O)NCCCn2cc(-c3ccc(OC(F)(F)F)cc3)c3cc(CN4CCN(Cc5c(Cl)cccc5Cl)CC4)ccc32)CCNCC1`: the pKd in [6], in [7] and in data set [8] was 5.05 in each case. The pIC50 with DLD-1 [9] is 5.06. Regarding `Cn1cnc(Cn2ccc3ccc(CNCc4[nH]c5ccccc5c4[C@H]4NC(=O)c5ccc(O)cc54)cc32)c1`, in the data set with NCI-H358, the pIC50 is 5.17. As for `CC[C@H](C)[C@H](N)C(=O)Nc1ccc2nc(Cc3c[nH]c4ccccc34)[nH]c2c1`, the inhibition on GTPase KRas [10] was found to be 78%. In the case of `C=CC(=O)N1CCN(c2ncnc3c(F)c(-c4c(O)cccc4F)c(Cl)cc23)CC1` (atropisomer S), the K in data set [2] was 1100 M⁻¹ s⁻¹. In the case of `Cc1[nH]c2cc(Cl)cc(Cl)c2c1CCN`, the pEC50 on GTPase KRas [11] is 4.80.

With `C=CC(=O)N1CCN(c2ncnc3cc(-c4ccccc4O)c(Cl)cc23)CC1`, the K in data set [2] turned out to be 12 M⁻¹ s⁻¹. In the case of `c1ccc2c(Cc3nc4ccncc4[nH]3)c[nH]c2c1`, on GTPase KRas [12], the pKd was 2.89.
